Data from PMC12118337, “Development of a Peptide Inhibitor Targeting the C‐SH2 Domain of the SHP2 Phosphatase” (Chembiochem, 2025).
Residues, ends and D or L forms follow the SMILES beside them. *: point of attachment. 5FAM = O=C1OC2(c3ccc(O)cc3Oc3cc(O)ccc32)c2ccc(C(=O)*)cc21; X1 = O=C(O)C(C(=O)O)*

Test system: WT Jurkat T cells
Assay: Peptide cellular uptake by confocal fluorescence microscopy, Jurkat
Assay type: cell-based
Settings: confocal fluorescence microscopy via FAM group, live cells, 50 or 100 μM peptide, 2 or 5 h, 37 °C; three independent experiments
Method: Multiply charged ions were selected for higher collisional dissociation (HCD) using a normalized collision energy (NCE) of 28%, fragmentation targeting for the 12 most abundant precursor ions. Fragment ions were measured with a resolution of 35,000 with a scan range of 200-2,000 m/z and an AGC target of 1E5. A dynamic exclusion time of 45 s with a maximum ion time of 120 ms and an isolation window of 3 m/z was set. Mass spectrometric data evaluation was performed using MaxQuant 1.6.5.0,[5] searching against a homo sapiens UniProt sequence database (2021/02; 218,230 entries including isoforms) supplemented with the protein sequences of the respective peptide used for the experiment. […] The protein list was analysed with Perseus v2.0.11.[6] […] The data was further analysed with the R language package and identified proteins compared with the CRAPome database (H. sapiens single step epitope tag AP-MS background contaminant list) to mitigate the influence of background contaminants (Table S2).[7] […] The significance thresholds were set to alpha 0.01 and a calculated log2 protein ratio of 4. […]
6. Peptide cellular uptake by fluorescence microscopy
The cell permeability of FAM-labelled peptides in WT Jurkat T cells (peptide 26 and peptide 28) and WT HeLa cells (peptide 28) was visualised by fluorescence microscopy. […]

cellular uptake in Jurkat cells: no cell uptake
SMILES: CC[C@H](C)[C@H](NC(=O)[C@@H](NC(=O)[C@H](C)NC(=O)[C@H](Cc1ccc(OC(C(=O)O)C(=O)O)cc1)NC(=O)[C@H](CCC(=O)O)NC(=O)[C@@H](NC(=O)[C@H](CCC(N)=O)NC(=O)c1ccc2c(c1)C(=O)OC21c2ccc(O)cc2Oc2cc(O)ccc21)[C@@H](C)O)[C@@H](C)O)C(=O)N[C@@H](CCCCN)C(=O)N[C@@H](Cc1c[nH]cn1)C(=O)N1CCC[C@H]1C(N)=O [peptide 26] (5FAM-QTEY(X1)ATIKHP-NH2)
